Data taken from PubChem BioAssay (NCI).
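In this assay, cells in 96-well plates receive the compound at five concentrations for 48 hours. Endpoints are linearly interpolated between the surrounding concentrations. TGI: concentration producing complete growth inhibition.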

How the values were obtained:
Test in all cases: DTP human tumour cell line panel, 48 h
MCF7 breast = system: MCF7 breast
MDA-N = system: MDA-N
RPMI-8226 leukemia = system: RPMI-8226 leukemia
IGROV1 ovarian = system: IGROV1 ovarian
RXF 393 renal = system: RXF 393 renal
CAKI-1 renal = system: CAKI-1 renal
K-562 leukemia = system: K-562 leukemia
HOP-92 NSCLC = system: HOP-92 NSCLC
SR leukemia = system: SR leukemia
MOLT-4 leukemia = system: MOLT-4 leukemia
U251 CNS = system: U251 CNS
SF-295 CNS = system: SF-295 CNS
A549 NSCLC = system: A549 NSCLC
HCT-116 colon = system: HCT-116 colon
OVCAR-3 ovarian = system: OVCAR-3 ovarian
SN12C renal = system: SN12C renal
SW-620 colon = system: SW-620 colon
UO-31 renal = system: UO-31 renal
KM12 colon = system: KM12 colon
NCI-H522 lung = system: NCI-H522 lung
SK-OV-3 ovarian = system: SK-OV-3 ovarian
OVCAR-5 ovarian = system: OVCAR-5 ovarian
SK-MEL-28 melanoma = system: SK-MEL-28 melanoma
SF-539 CNS = system: SF-539 CNS
HL-60(TB) leukemia = system: HL-60(TB) leukemia
SK-MEL-2 melanoma = system: SK-MEL-2 melanoma
T-47D breast = system: T-47D breast
NCI-H460 lung = system: NCI-H460 lung
EKVX NSCLC = system: EKVX NSCLC
OVCAR-4 ovarian = system: OVCAR-4 ovarian
HT29 colon = system: HT29 colon
CCRF-CEM leukemia = system: CCRF-CEM leukemia
PC-3 prostate = system: PC-3 prostate
UACC-62 melanoma = system: UACC-62 melanoma
HOP-62 NSCLC = system: HOP-62 NSCLC
SNB-19 CNS = system: SNB-19 CNS
MDA-MB-435 = system: MDA-MB-435
COLO 205 colon = system: COLO 205 colon
DU-145 prostate = system: DU-145 prostate
SF-268 CNS = system: SF-268 CNS
NCI/ADR-RES ovarian = system: NCI/ADR-RES ovarian
NCI-H23 lung = system: NCI-H23 lung
M14 melanoma = system: M14 melanoma
HCT-15 colon = system: HCT-15 colon
A498 renal = system: A498 renal
ACHN renal = system: ACHN renal
HCC-2998 colon = system: HCC-2998 colon
UACC-257 melanoma = system: UACC-257 melanoma
NCI-H226 lung = system: NCI-H226 lung
BT-549 breast = system: BT-549 breast
SNB-75 CNS = system: SNB-75 CNS
OVCAR-8 ovarian = system: OVCAR-8 ovarian
786-0 renal = system: 786-0 renal
HS 578T breast = system: HS 578T breast
MDA-MB-231 breast = system: MDA-MB-231 breast
TK-10 renal = system: TK-10 renal
SK-MEL-5 melanoma = system: SK-MEL-5 melanoma
MALME-3M melanoma = system: MALME-3M melanoma
LOX IMVI melanoma = system: LOX IMVI melanoma

## COC(=O)CCSC1=CC(=O)c2nc3ccccc3c3ccnc1c23
MCF7 breast
  TGI: > 50.2 µM
MDA-N
  TGI: 87.2 µM
RPMI-8226 leukemia
  TGI: > 100 µM
IGROV1 ovarian
  TGI: 34.5 µM
RXF 393 renal
  TGI: 37.1 µM
CAKI-1 renal
  TGI: 42.5 µM
K-562 leukemia
  TGI: > 42 µM
HOP-92 NSCLC
  TGI: > 55.4 µM
SR leukemia
  TGI: > 51.5 µM
MOLT-4 leukemia
  TGI: 50.4 µM
U251 CNS
  TGI: > 100 µM
SF-295 CNS
  TGI: > 100 µM
A549 NSCLC
  TGI: > 100 µM
HCT-116 colon
  TGI: 42.2 µM
OVCAR-3 ovarian
  TGI: 11.4 µM
SN12C renal
  TGI: 40.7 µM
SW-620 colon
  TGI: > 53.1 µM
UO-31 renal
  TGI: 31.7 µM
KM12 colon
  TGI: 34.8 µM
NCI-H522 lung
  TGI: 3.74 µM
SK-OV-3 ovarian
  TGI: > 100 µM
OVCAR-5 ovarian
  TGI: > 71.4 µM
SK-MEL-28 melanoma
  TGI: 45.9 µM
SF-539 CNS
  TGI: 29.8 µM
HL-60(TB) leukemia
  TGI: > 24 µM
SK-MEL-2 melanoma
  TGI: > 70.1 µM
T-47D breast
  TGI: 44.1 µM
NCI-H460 lung
  TGI: 41.3 µM
EKVX NSCLC
  TGI: 40.7 µM
OVCAR-4 ovarian
  TGI: 41.9 µM
HT29 colon
  TGI: 34.1 µM
CCRF-CEM leukemia
  TGI: > 26.6 µM
PC-3 prostate
  TGI: 36.7 µM
UACC-62 melanoma
  TGI: 21.7 µM
HOP-62 NSCLC
  TGI: > 100 µM
SNB-19 CNS
  TGI: > 100 µM
MDA-MB-435
  TGI: > 27.5 µM
COLO 205 colon
  TGI: > 47 µM
DU-145 prostate
  TGI: 48.1 µM
SF-268 CNS
  TGI: 34.3 µM
NCI/ADR-RES ovarian
  TGI: 46.6 µM
NCI-H23 lung
  TGI: 32 µM
M14 melanoma
  TGI: 47.2 µM
HCT-15 colon
  TGI: 27.9 µM
A498 renal
  TGI: > 100 µM
ACHN renal
  TGI: 48.3 µM
HCC-2998 colon
  TGI: 27.6 µM
UACC-257 melanoma
  TGI: 33 µM
NCI-H226 lung
  TGI: > 100 µM
BT-549 breast
  TGI: 33 µM
SNB-75 CNS
  TGI: > 100 µM
OVCAR-8 ovarian
  TGI: > 56.3 µM
786-0 renal
  TGI: 40.2 µM
HS 578T breast
  TGI: 67.8 µM
MDA-MB-231 breast
  TGI: > 70.7 µM
TK-10 renal
  TGI: 18.9 µM
SK-MEL-5 melanoma
  TGI: > 53.5 µM

## O=C1C=C(NCCc2cc(Cl)c(O)c(Cl)c2)C(=O)c2[nH]cnc21
MCF7 breast
  TGI: 64.8 µM
MDA-N
  TGI: 33.8 µM
RPMI-8226 leukemia
  TGI: > 100 µM
IGROV1 ovarian
  TGI: 38.8 µM
K-562 leukemia
  TGI: 55.4 µM
SR leukemia
  TGI: > 100 µM
MOLT-4 leukemia
  TGI: 67.5 µM
U251 CNS
  TGI: > 100 µM
SF-295 CNS
  TGI: 45.6 µM
A549 NSCLC
  TGI: > 100 µM
HCT-116 colon
  TGI: > 100 µM
OVCAR-3 ovarian
  TGI: 47.2 µM
SN12C renal
  TGI: > 100 µM
SW-620 colon
  TGI: > 100 µM
UO-31 renal
  TGI: > 100 µM
KM12 colon
  TGI: > 100 µM
NCI-H522 lung
  TGI: 31.4 µM
OVCAR-5 ovarian
  TGI: > 100 µM
SK-MEL-28 melanoma
  TGI: 65.9 µM
SF-539 CNS
  TGI: > 100 µM
HL-60(TB) leukemia
  TGI: 32.9 µM
MALME-3M melanoma
  TGI: 15.9 µM
SK-MEL-2 melanoma
  TGI: 57.6 µM
T-47D breast
  TGI: 53.2 µM
NCI-H460 lung
  TGI: 68.3 µM
EKVX NSCLC
  TGI: > 100 µM
HT29 colon
  TGI: > 100 µM
LOX IMVI melanoma
  TGI: > 100 µM
PC-3 prostate
  TGI: > 100 µM
UACC-62 melanoma
  TGI: 41.1 µM
HOP-62 NSCLC
  TGI: > 100 µM
SNB-19 CNS
  TGI: > 100 µM
MDA-MB-435
  TGI: 30.3 µM
COLO 205 colon
  TGI: 52.7 µM
NCI/ADR-RES ovarian
  TGI: > 100 µM
NCI-H23 lung
  TGI: 36.8 µM
M14 melanoma
  TGI: 26.7 µM
HCT-15 colon
  TGI: > 100 µM
A498 renal
  TGI: > 100 µM
ACHN renal
  TGI: > 100 µM
HCC-2998 colon
  TGI: > 100 µM
UACC-257 melanoma
  TGI: 60 µM
BT-549 breast
  TGI: > 100 µM
OVCAR-8 ovarian
  TGI: > 100 µM
786-0 renal
  TGI: > 100 µM
HS 578T breast
  TGI: > 100 µM
MDA-MB-231 breast
  TGI: > 100 µM
TK-10 renal
  TGI: > 100 µM
SK-MEL-5 melanoma
  TGI: 31.5 µM
